Measured values published in patent publication US20100298141A1, “SUBSTITUTED PYRIDINE N-OXIDE HERBICIDES” (E. I. DU PONT DE NEMOURS AND COMPANY, priority 2007, published 2010).

Experiments:
barnyardgrass [1] = test: Test C flooded paddy test; assay type: in vivo, Echinochloa crus-galli; conditions: Flood
Summary of the method: (§1)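 Compound was added to standing water 3 cm above soil, flood maintained, and plants held in a greenhouse before visual scoring against controls at 13 to 15 days.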

wheat = test: Test A pre-/postemergence greenhouse test; assay type: in vivo, Triticum aestivum; conditions: for Plant response rating, Wheat: 0 to 100 scale where 0 is no effect and 100 is complete control; for Wheat plant response rating: 0 to 100 scale
Summary of the method: (§2)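 Each test compound, dissolved in a non-phytotoxic solvent mixture with surfactant, was sprayed directly onto seeded soil (loam/sand blend) and, at the same moment, onto seedlings carrying one to two leaves. Around ten greenhouse days later, plants were rated visually for injury relative to untreated controls.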

corn = test: Test A pre-/postemergence greenhouse test; assay type: in vivo, Zea mays; conditions: for Plant response rating, Corn: 0 to 100 scale where 0 is no effect and 100 is complete control; for Corn plant response rating: 0 to 100 scale
Summary of the method: as §2

redroot pigweed = test: Test A pre-/postemergence greenhouse test; assay type: in vivo, Amaranthus retroflexus; conditions: for Plant response rating, Pigweed: 0 to 100 scale where 0 is no effect and 100 is complete control; for Pigweed plant response rating: 0 to 100 scale
Summary of the method: as §2

barnyardgrass [2] = test: Test A pre-/postemergence greenhouse test; assay type: in vivo, Echinochloa crus-galli; conditions: for Plant response rating, Barnyardgrass: 0 to 100 scale where 0 is no effect and 100 is complete control; for Barnyardgrass plant response rating: 0 to 100 scale
Summary of the method: as §2

duck salad = test: Test C flooded paddy test; assay type: in vivo, Heteranthera limosa; conditions: Flood
Summary of the method: as §1

crabgrass = test: Test A pre-/postemergence greenhouse test; assay type: in vivo, Digitaria sanguinalis; conditions: for Plant response rating, Crabgrass, Large: 0 to 100 scale where 0 is no effect and 100 is complete control; for Crabgrass, Large plant response rating: 0 to 100 scale
Summary of the method: as §2

velvetleaf = test: Test A pre-/postemergence greenhouse test; assay type: in vivo, Abutilon theophrasti; conditions: for Plant response rating, Velvetleaf: 0 to 100 scale where 0 is no effect and 100 is complete control; for Velvetleaf plant response rating: 0 to 100 scale
Summary of the method: as §2

morningglory = test: Test A pre-/postemergence greenhouse test; assay type: in vivo, Ipomoea spp.; conditions: for Plant response rating, Morningglory: 0 to 100 scale where 0 is no effect and 100 is complete control; for Morningglory plant response rating: 0 to 100 scale
Summary of the method: as §2

rice = test: Test C flooded paddy test; assay type: in vivo, Oryza sativa; conditions: Flood
Summary of the method: as §1

giant foxtail = test: Test A pre-/postemergence greenhouse test; assay type: in vivo, Setaria faberi; conditions: for Plant response rating, Foxtail, Giant: 0 to 100 scale where 0 is no effect and 100 is complete control; for Foxtail, Giant plant response rating: 0 to 100 scale
Summary of the method: as §2

umbrella sedge = test: Test C flooded paddy test; assay type: in vivo, Cyperus difformis; conditions: Flood
Summary of the method: as §1

[3] = 62 g ai/ha, scale 0 to 100 (0 no effect, 100 complete control)
[4] = 250 g ai/ha, scale 0 to 100, 0 no effect, 100 complete control, 13 to 15 days
[5] = Postemergence, 500 g ai/ha, 0 is no effect, 100 is complete control
[6] = Preemergence, 125 g ai/ha, 0 no effect, 100 complete control
[7] = Preemergence, 500 g ai/ha, 0 no effect, 100 complete control
[8] = 62 g ai/ha, scale 0 to 100, 0 no effect, 100 complete control, 13 to 15 days

| SMILES | Plant response rating, Barnyardgrass (barnyardgrass [1]; [4]) | Plant response rating, Wheat (wheat; Postemergence, 125 g ai/ha) | Wheat plant response rating (wheat; [5]) | Wheat plant response rating (wheat; [6]) | Plant response rating, Corn (corn; Postemergence, 125 g ai/ha) | Corn plant response rating (corn; [5]) | Corn plant response rating (corn; [6]) | Plant response rating, Corn (corn; Preemergence, 500 g ai/ha) | Plant response rating, Pigweed (redroot pigweed; Postemergence, 125 g ai/ha) | Pigweed plant response rating (redroot pigweed; [5]) | Pigweed plant response rating (redroot pigweed; [6]) | Plant response rating, Pigweed (redroot pigweed; Preemergence, 500 g ai/ha) | Plant response rating, Barnyardgrass (barnyardgrass [2]; Postemergence, 125 g ai/ha) | Barnyardgrass plant response rating (barnyardgrass [2]; [5]) | Barnyardgrass plant response rating (barnyardgrass [2]; [6]) | Plant response rating, Barnyardgrass (barnyardgrass [2]; Preemergence, 500 g ai/ha) | Plant response rating, Ducksalad (duck salad; [4]) | Plant response rating, Crabgrass, Large (crabgrass; Postemergence, 125 g ai/ha) | Crabgrass, Large plant response rating (crabgrass; [5]) | Crabgrass, Large plant response rating (crabgrass; [6]) | other results |
| --- | --- | --- | --- | --- | --- | --- | --- | --- | --- | --- | --- | --- | --- | --- | --- | --- | --- | --- | --- | --- | --- |
| Cc1cc[n+]([O-])c([S+]([O-])Cc2c(C(F)(F)F)nn(C)c2OCC(F)F)c1 (stereo not drawn) [Compound 86] | 0 | 50 | 70 | 70 | 0 | 80 | 20 | 50 | 60 | 90 | 90 | 100 | 70 | 90 | 70 | 100 | 100 | 50 | 90 | 70 | Plant response rating, Barnyardgrass (barnyardgrass [1]; [3]): 0; Wheat plant response rating (wheat; [7]): 90; Plant response rating, Ducksalad (duck salad; [3]): 65; Plant response rating, Crabgrass, Large (crabgrass; Preemergence, 500 g ai/ha): 100; Plant response rating, Velvetleaf (velvetleaf; Postemergence, 125 g ai/ha): 50; Velvetleaf plant response rating (velvetleaf; [5]): 70; Velvetleaf plant response rating (velvetleaf; [6]): 10; Velvetleaf plant response rating (velvetleaf; [7]): 80; Plant response rating, Morningglory (morningglory; Postemergence, 125 g ai/ha): 60; Morningglory plant response rating (morningglory; [5]): 90; Morningglory plant response rating (morningglory; [6]): 50; Plant response rating, Morningglory (morningglory; Preemergence, 500 g ai/ha): 90; Plant response rating, Rice (rice; [3]): 0; Plant response rating, Rice (rice; [4]): 0; Plant response rating, Foxtail, Giant (giant foxtail; Postemergence, 125 g ai/ha): 80; Foxtail, Giant plant response rating (giant foxtail; [5]): 90; Foxtail, Giant plant response rating (giant foxtail; [6]): 90; Plant response rating, Foxtail, Giant (giant foxtail; Preemergence, 500 g ai/ha): 100; Plant response rating, Sedge, Umbrella (umbrella sedge; [3]): 45; Plant response rating, Sedge, Umbrella (umbrella sedge; [4]): 95 |
| Cn1nc(C(F)(F)F)c(CS(=O)(=O)c2ccc(Cl)c[n+]2[O-])c1OCC(F)F [Compound 93] | 20 | 20 | 40 | 30 | 30 | 30 | 0 | 0 | 60 | 70 | 70 | 100 | 70 | 80 | 60 | 90 | 50 | 50 | 80 | 60 | Plant response rating, Barnyardgrass (barnyardgrass [1]; [3]): 0; Wheat plant response rating (wheat; [7]): 30; Plant response rating, Ducksalad (duck salad; [3]): 0; Plant response rating, Crabgrass, Large (crabgrass; Preemergence, 500 g ai/ha): 90; Plant response rating, Velvetleaf (velvetleaf; Postemergence, 125 g ai/ha): 0; Velvetleaf plant response rating (velvetleaf; [5]): 50; Velvetleaf plant response rating (velvetleaf; [6]): 0; Velvetleaf plant response rating (velvetleaf; [7]): 40; Plant response rating, Morningglory (morningglory; Postemergence, 125 g ai/ha): 30; Morningglory plant response rating (morningglory; [5]): 40; Morningglory plant response rating (morningglory; [6]): 0; Plant response rating, Morningglory (morningglory; Preemergence, 500 g ai/ha): 0; Plant response rating, Rice (rice; [3]): 0; Plant response rating, Rice (rice; [4]): 30; Plant response rating, Foxtail, Giant (giant foxtail; Postemergence, 125 g ai/ha): 60; Foxtail, Giant plant response rating (giant foxtail; [5]): 80; Foxtail, Giant plant response rating (giant foxtail; [6]): 60; Plant response rating, Foxtail, Giant (giant foxtail; Preemergence, 500 g ai/ha): 90; Plant response rating, Sedge, Umbrella (umbrella sedge; [3]): 0; Plant response rating, Sedge, Umbrella (umbrella sedge; [4]): 40 |
| [O-][n+]1ccccc1[S+]([O-])Cc1c(C(F)(F)F)nn(CC(F)(F)F)c1Cl (stereo not drawn) [Compound 43] | 60 | 40 | 60 | 40 | 30 | 50 | 0 | 50 | 30 | 60 | 0 | 90 | 50 | 80 | 70 | 90 | 60 | 70 | 80 | 70 | Plant response rating, Barnyardgrass (barnyardgrass [1]; [8]): 0; Plant response rating, Wheat (wheat; Preemergence, 500 g ai/ha): 70; Plant response rating, Ducksalad (duck salad; [8]): 0; Plant response rating, Crabgrass, Large (crabgrass; Preemergence, 500 g ai/ha): 90; Plant response rating, Velvetleaf (velvetleaf; Postemergence, 125 g ai/ha): 20; Velvetleaf plant response rating (velvetleaf; [5]): 60; Velvetleaf plant response rating (velvetleaf; [6]): 30; Plant response rating, Velvetleaf (velvetleaf; Preemergence, 500 g ai/ha): 50; Plant response rating, Morningglory (morningglory; Postemergence, 125 g ai/ha): 30; Morningglory plant response rating (morningglory; [5]): 80; Morningglory plant response rating (morningglory; [6]): 0; Plant response rating, Morningglory (morningglory; Preemergence, 500 g ai/ha): 80; Plant response rating, Rice (rice; [8]): 0; Plant response rating, Rice (rice; [4]): 30; Plant response rating, Foxtail, Giant (giant foxtail; Postemergence, 125 g ai/ha): 70; Foxtail, Giant plant response rating (giant foxtail; [5]): 90; Foxtail, Giant plant response rating (giant foxtail; [6]): 80; Plant response rating, Foxtail, Giant (giant foxtail; Preemergence, 500 g ai/ha): 90; Plant response rating, Sedge, Umbrella (umbrella sedge; [8]): 30; Plant response rating, Sedge, Umbrella (umbrella sedge; [4]): 70 |
